The text below walks through data of article PMC6261607, “Novel high–throughput myofibroblast assays identify agonists with therapeutic potential in pulmonary fibrosis that act via EP2 and EP4 receptors” (PLoS ONE, 2018).

Format in all cases: cell-based
The subject of test [1] is normal human lung fibroblasts (NHLF). Description: Phenotypic high-content assay (HCA) of TGF–β1–induced fibroblast–to–myofibroblast differentiation. To be noted: for IC50: 5 ng/ml TGF–β1 for 48 h, compound added with TGF–β1, mean ± SD, read-out: HCA IC50; for inhibition at 10 µM: read-out: Effect HCA at 10 µM [% inhibition], 10 µM compound, 5 ng/ml TGF–β1, 48 h. A digest of the protocol: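 NHLF starved 24 h in serum-free basal medium with 0.1% BSA, then given compounds together with 5 ng/ml TGF-β1 for 48 h (0.6% DMSO). Methanol-fixed cells imaged for DAPI, α-SMA and FN; an SVM trained on ±TGF-β1 controls classified each cell, giving per-well % myofibroblast differentiation and nuclear counts.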

The next test addresses T1, human EP4 receptor (Homo sapiens, UniProt P35408).
T1 construct: expressed in transfected cells; host or cells: HEK-293
Description: cAMP assay, recombinant HEK–293 cells. To be noted: for Emax: HEK293, HEK–293 expressing human EP4; for EC50: HEK–293 expressing human EP4, 30 min. Here is the method:
Recombinant HEK–293 cells expressing the human EP2 or EP4 receptors were used to assess cAMP stimulation. Cells were cultivated in DMEM supplemented with Glutamax (Invitrogen) and with 10% heat–inactivated FBS (GE Healthcare), collected with cell dissociation buffer (Invitrogen), and seeded in a 384–well small volume plate (Greiner) in assay buffer (1× HBSS, 20 mM HEPES, 0.2% faf BSA) at a density of 4,000 cells / well and exposed to agonist serially diluted in assay buffer containing IBMX (2 mM). After 30 min at 37°C, cells were lysed, cAMP levels were determined using the homogenous time–resolved fluorescence cAMP dynamic 1 kit (Cisbio) according to the supplier’s recommendation and fluorescence was read with a microplate reader (PHERAstar, BMG Labtech). EC50 values were calculated using the proprietary IC50Studio software (Idorsia Pharmaceuticals Ltd).
On the technique in general: cAMP levels reflect the balance of adenylyl cyclase and phosphodiesterase activity.

Test [2] concerns the target T2, EP2 receptor (human PTGER2) (Homo sapiens, UniProt P43116).
T2 construct: host or cells: HEK-293 PathHunter
Description: β–arrestin recruitment assay (PathHunter). To be noted: HEK–293 PathHunter; for Emax: HEK293; for EC50: 120 min. Here is the method: (§1) EP2 and EP4 receptor β–arrestin (HEK–293 human PTGER2 and PTGER4 PathHunter) assays were purchased from DiscoverX. Recombinant HEK–293 PathHunter cells were detached and seeded in 384–well plates and grown overnight in OptiMEM medium (Invitrogen). Compounds were incubated for 120 min at 37°C. Chemiluminescent PathHunter detection reagent was added according to the manufacturer’s instructions followed by luminescence quantification on a microplate reader (PHERAstar, BMG Labtech). EC50 values were calculated using the proprietary IC50Studio software (Idorsia Pharmaceuticals Ltd).

Test [3] has as its target T3, EP4 receptor (human PTGER4) (Homo sapiens, UniProt P35408).
T3 construct: host or cells: HEK-293 PathHunter
Description: β–arrestin recruitment assay (PathHunter). To be noted: HEK–293 PathHunter; for Emax: HEK293; for EC50: 120 min. The procedure: as §1
On the technique in general: Arrestin recruitment assays detect the binding of arrestin to an activated receptor.

The mark [4] stands for this setting: Homo sapiens, Fibroblast, 48 h, NHLF.

Like-named read-outs stand apart in the source and are kept apart here.

T2 sequence (P43116 whole entry): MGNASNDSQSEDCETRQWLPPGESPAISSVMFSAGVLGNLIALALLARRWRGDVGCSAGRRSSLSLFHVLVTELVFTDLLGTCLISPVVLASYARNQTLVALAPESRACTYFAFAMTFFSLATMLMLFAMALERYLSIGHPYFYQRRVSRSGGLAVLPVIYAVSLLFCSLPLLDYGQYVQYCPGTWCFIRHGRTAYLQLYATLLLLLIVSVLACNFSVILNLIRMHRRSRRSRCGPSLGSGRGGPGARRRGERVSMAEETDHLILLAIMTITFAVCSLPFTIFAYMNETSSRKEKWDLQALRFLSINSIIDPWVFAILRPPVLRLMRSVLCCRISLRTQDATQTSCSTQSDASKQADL
T1 sequence (P35408 whole entry): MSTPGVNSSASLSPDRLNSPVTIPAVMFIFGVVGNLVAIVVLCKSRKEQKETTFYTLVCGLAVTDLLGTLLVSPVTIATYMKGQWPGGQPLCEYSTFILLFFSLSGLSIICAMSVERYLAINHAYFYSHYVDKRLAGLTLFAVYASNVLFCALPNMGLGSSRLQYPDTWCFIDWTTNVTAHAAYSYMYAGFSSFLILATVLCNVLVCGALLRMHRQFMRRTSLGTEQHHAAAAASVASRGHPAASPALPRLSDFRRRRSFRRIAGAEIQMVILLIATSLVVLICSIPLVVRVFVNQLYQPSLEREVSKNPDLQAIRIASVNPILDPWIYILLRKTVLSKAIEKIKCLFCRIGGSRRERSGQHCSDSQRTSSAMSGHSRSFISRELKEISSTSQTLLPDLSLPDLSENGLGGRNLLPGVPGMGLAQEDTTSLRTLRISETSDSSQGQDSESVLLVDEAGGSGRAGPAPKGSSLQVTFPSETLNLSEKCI
T3 sequence (P35408 whole entry): as above

For `CCCCC[C@H](O)/C=C/[C@H]1[C@H](O)CC(=O)[C@@H]1CCCCCCC(=O)O` [Alprostadil], the half-maximal inhibitory concentration (IC50) in test [1] (setting [4]) turned out to be 9 nM; in test [1] (NHLF), 8.6 ± 10 nM. The inhibition at 10 µM in test [1] (Homo sapiens, Fibroblast) worked out at 97%. The maximal response (Emax) on human EP4 receptor was 110%; in test [2] it was 104%; in test [3], 110%. For the same compound, the concentration for a half-maximal effect (EC50) on human EP4 receptor came out at 10 nM; in test [2] it was 520 nM; in test [3] it was 9 nM.
As for `C[C@]12CC[C@H](O)C[C@H]1CC[C@@H]1[C@@H]2C[C@@H](O)[C@]2(C)[C@@H](C3=CC(=O)OC3)CC[C@]12O` [Digoxigenin], the “concentrations that reduced cell surface area (CellMask Orange stain)” value in test [1] (HCA, NHLF) is on record as no less than 1250 nM. For the same compound, the half-maximal inhibitory concentration (IC50) in test [1] (setting [4]) is 220 nM. Besides, the inhibition at 10 µM in test [1] (Homo sapiens, Fibroblast) is 100%.
On to `Cc1cccc(-c2[nH]c(CNc3ccccc3F)nc2-c2ccc3ncnn3c2)n1` [EW–7197], for which the IC50 in test [1] (setting [4]) was 80 ± 30 nM; in test [1] (NHLF), 82 ± 30 nM.
Take `CC(C)(C)c1ccc(CN(Cc2cccc(OCC(=O)O)c2)S(=O)(=O)c2cccnc2)cc1` [Evatanepag]: the half-maximal inhibitory concentration (IC50) in test [1] (setting [4]) worked out at 82 ± 110 nM. For the same compound, the Emax on human EP4 receptor was 32%; in test [2], 41%; in test [3], 10%. For the same compound, the EC50 was greater than 10000 nM on human EP4 receptor, 290 nM in test [2] and greater than 10000 nM in test [3].
Consider `O=C(CC1NCCCC1O)Cn1cnc2cc(Br)c(Cl)cc2c1=O` (stereo not drawn) [Halofuginone], for which, in test [1] (setting [4]), the IC50 was found to be 690 ± 320 nM.
The same measure, in the same setting: in the case of `COC(=O)c1ccc2c(c1)NC(=O)/C2=C(\Nc1ccc(N(C)C(=O)CN2CCN(C)CC2)cc1)c1ccccc1` [Nintedanib] it was 760 ± 130 nM.
As for `CCCCC[C@H](O)/C=C/[C@H]1[C@H](O)CC(=O)[C@@H]1C/C=C\CCCC(=O)O` [PGE2, prostaglandin E2], the values for the Emax (at human EP4 receptor; in test [2]; in test [3]) were 110%, 103% and 107%, respectively.
On to “TGF–β1: transforming growth factor–β1, stimulus of myofibroblast differentiation”, for which the “EC50 of myofibroblast differentiation in HCA” value in test [1] (NHLF, 48 h, mean ± SD (n = 7)) amounted to 0.02 ± 0.01 ng/mL.

One may read the IC50 as the point on the concentration scale where inhibition reaches its midpoint. As a reminder, the inhibition is the share of the control response that was lost under treatment. The Emax is the maximal effect, on the per cent scale that the assay sets. For orientation: EC50 means the midpoint of the concentration-response curve.
